This experiment addresses T1, SIRT1 (Homo sapiens, UniProt Q96EB6).
T1 sequence (Q96EB6 1-747): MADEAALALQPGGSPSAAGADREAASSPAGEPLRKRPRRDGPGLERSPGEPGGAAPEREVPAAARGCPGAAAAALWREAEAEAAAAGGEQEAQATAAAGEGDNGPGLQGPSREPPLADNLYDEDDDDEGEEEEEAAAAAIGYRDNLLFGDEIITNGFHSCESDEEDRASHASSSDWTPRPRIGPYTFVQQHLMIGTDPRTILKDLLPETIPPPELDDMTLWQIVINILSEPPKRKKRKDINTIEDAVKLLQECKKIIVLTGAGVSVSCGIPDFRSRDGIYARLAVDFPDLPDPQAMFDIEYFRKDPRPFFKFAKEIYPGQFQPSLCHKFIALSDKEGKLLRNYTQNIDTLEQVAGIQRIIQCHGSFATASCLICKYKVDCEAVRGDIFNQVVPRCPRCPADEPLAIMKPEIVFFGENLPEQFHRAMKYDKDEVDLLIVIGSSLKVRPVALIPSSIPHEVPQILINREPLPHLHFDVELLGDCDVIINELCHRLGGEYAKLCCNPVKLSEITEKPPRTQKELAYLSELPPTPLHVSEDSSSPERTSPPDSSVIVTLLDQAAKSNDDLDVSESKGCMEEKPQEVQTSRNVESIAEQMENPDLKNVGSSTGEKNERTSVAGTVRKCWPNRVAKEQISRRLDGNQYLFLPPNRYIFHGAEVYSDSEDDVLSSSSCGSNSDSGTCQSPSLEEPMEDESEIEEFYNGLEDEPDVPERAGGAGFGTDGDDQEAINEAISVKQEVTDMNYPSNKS
As to the kind of experiment: Mass spectrometry based SIRT1 deacetylation assay (activation). Type of experiment: biochemical. The conditions noted are these: 10 nM SIRT1, 0.5 μM peptide substrate, 120 μM βNAD+, 25 min at 25° C. In outline: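 Recombinant N-His-tagged SIRT1 (E. coli BL21(DE3)), 10 nM, incubated 25 min at 25 °C with 0.5 μM biotin/5TMR-labelled acetyl-p53-derived 20-mer peptide and 120 μM βNAD+ in Tris-acetate pH 8 buffer with DTT and BSA. Formic acid stop; MS quantifies acetylated vs deacetylated peptide. EC1.5 = concentration giving 150% activation versus DMSO.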
With `O=C(Nc1ccccn1)c1cccc2cnc(-c3cccc(C(F)(F)F)c3)nc12` [Compound 283], the “EC1.5 (concentration of test compound that results in 150% activation of SIRT1)” value is “C (EC1.5>25 uM)”.
Regarding `Cn1ccc(C(=O)Nc2cccc3ccc(-c4cncc(F)c4)nc23)n1` [Compound 284], the “EC1.5 (concentration of test compound that results in 150% activation of SIRT1)” value is given as “C (EC1.5>25 uM)”.
With `O=C(Nc1ccc(CN2CCCC2)cn1)c1cccc2ccc(-c3cccc(C(F)(F)F)c3)nc12` [Compound 285], the “% Fold Act. (percent maximum fold activation)” value is recorded as “A (Fold activation >200%)” and the “EC1.5 (concentration of test compound that results in 150% activation of SIRT1)” value is “A (EC1.5<1.0 uM)”.
The matching figures for `O=C(Nc1cccc(CN2CCOCC2)c1)c1cccc2ccc(-c3cccc(C(F)F)c3)nc12` [Compound 286]: “A (Fold activation >200%)” and “A (EC1.5<1.0 uM)”.
For `O=C(Nc1cccc(CN2CCOCC2)n1)c1cccc2ccc(-c3cccc(C(F)F)c3)nc12` [Compound 287] the same measures were “A (Fold activation >200%)” and “A (EC1.5<1.0 uM)”.
For `O=C(Nc1cccc(CN2CCCC2)n1)c1cccc2ccc(-c3cccc(C(F)F)c3)nc12` [Compound 288] the same measures were “A (Fold activation >200%)” and “A (EC1.5<1.0 uM)”.
Take `O=C(Nc1ccc(CN2CCOCC2)nc1)c1cccc2ccc(-c3cccc(C(F)F)c3)nc12` [Compound 289]: the “% Fold Act. (percent maximum fold activation)” value is on record as “A (Fold activation >200%)” and the “EC1.5 (concentration of test compound that results in 150% activation of SIRT1)” value was “A (EC1.5<1.0 uM)”.
The matching figures for `O=C(Nc1ccc(CN2CCCC2)nc1)c1cccc2ccc(-c3cccc(C(F)F)c3)nc12` [Compound 290]: “A (Fold activation >200%)” and “A (EC1.5<1.0 uM)”.
The matching figures for `O=C(Nc1ccc(CN2CCOCC2)nc1)c1cccc2ccc(-c3cccc(C(F)(F)F)c3)nc12` [Compound 291]: “A (Fold activation >200%)” and “A (EC1.5<1.0 uM)”.
For `O=C(Nc1ccc(CN2CCCC2)nc1)c1cccc2ccc(-c3cccc(C(F)(F)F)c3)nc12` [Compound 292] the same measures were “A (Fold activation >200%)” and “A (EC1.5<1.0 uM)”.
For `Cn1ccc(C(=O)Nc2cccc3ccc(-c4cccnc4)nc23)n1` [Compound 293], the “% Fold Act. (percent maximum fold activation)” value is reported as “A (Fold activation >200%)” and the “EC1.5 (concentration of test compound that results in 150% activation of SIRT1)” value is reported as “A (EC1.5<1.0 uM)”.
The matching figures for `Cn1cnc(C(=O)Nc2cccc3ccc(-c4cccnc4)nc23)c1` [Compound 294]: “A (Fold activation >200%)” and “B (EC1.5 1-25 uM)”.
Regarding `Cc1csc(NC(=O)c2cccc3cnc(-c4cccnc4)nc23)n1` [Compound 295], the “EC1.5 (concentration of test compound that results in 150% activation of SIRT1)” value is given as “C (EC1.5>25 uM)”.
For `O=C(Nc1ccncn1)c1cccc2cnc(-c3cccnc3)nc12` [Compound 296], the “EC1.5 (concentration of test compound that results in 150% activation of SIRT1)” value is given as “C (EC1.5>25 uM)”.
Consider `O=C(Nc1cccnc1)c1cccc2cnc(-c3cccnc3)nc12` [Compound 297], for which the “EC1.5 (concentration of test compound that results in 150% activation of SIRT1)” value is reported as “C (EC1.5>25 uM)”.
For the compound `O=C(Nc1ccccn1)c1cccc2cnc(-c3cccnc3)nc12` [Compound 298], the “EC1.5 (concentration of test compound that results in 150% activation of SIRT1)” value is listed as “C (EC1.5>25 uM)”.
As to `O=C(Nc1nccs1)c1cccc2cnc(-c3cccc(N4CCOCC4)c3)nc12` [Compound 299], the “% Fold Act. (percent maximum fold activation)” value was “B (Fold Activation <200%)” and the “EC1.5 (concentration of test compound that results in 150% activation of SIRT1)” value is on record as “B (EC1.5 1-25 uM)”.
The matching figures for `O=C(Nc1ncnc2ccc(-c3cccc(C(F)(F)F)c3)nc12)c1cncs1` [Compound 300]: “A (Fold activation >200%)” and “B (EC1.5 1-25 uM)”.
For `O=C(Nc1ncnc2ccc(-c3cccc(OC(F)(F)F)c3)nc12)c1cscn1` [Compound 301] the same measures were “A (Fold activation >200%)” and “A (EC1.5<1.0 uM)”.
The matching figures for `O=C(Nc1ccc(CN2CCCC2)cn1)c1cccc2ccc(-c3cccc(C(F)F)c3)nc12` [Compound 302]: “A (Fold activation >200%)” and “A (EC1.5<1.0 uM)”.
For the compound `O=C(Nc1ccc(CN2CCOCC2)cc1)c1cccc2ccc(-c3cccc(C(F)F)c3)nc12` [Compound 303], the “% Fold Act. (percent maximum fold activation)” value is on record as “A (Fold activation >200%)” and the “EC1.5 (concentration of test compound that results in 150% activation of SIRT1)” value was “A (EC1.5<1.0 uM)”.
For `O=C(Nc1nccs1)c1cccc2ccc(-c3ccnc(C(F)F)c3)nc12` [Compound 304] the same measures were “A (Fold activation >200%)” and “A (EC1.5<1.0 uM)”.
The matching figures for `O=C(Nc1cccnc1)c1cccc2ccc(-c3ccnc(C(F)F)c3)nc12` [Compound 305]: “A (Fold activation >200%)” and “A (EC1.5<1.0 uM)”.
Take `O=C(Nc1cccc(CN2CCOCC2)n1)c1cccc2ccc(-c3ccnc(C(F)F)c3)nc12` [Compound 306]: the “% Fold Act. (percent maximum fold activation)” value is “A (Fold activation >200%)” and the “EC1.5 (concentration of test compound that results in 150% activation of SIRT1)” value was “A (EC1.5<1.0 uM)”.
`Cc1cnc(NC(=O)c2cccc3ccc(-c4ccnc(C(F)F)c4)nc23)s1` [Compound 307]: the “EC1.5 (concentration of test compound that results in 150% activation of SIRT1)” value is recorded as “C (EC1.5>25 uM)”.
For the compound `O=C(Nc1ccncn1)c1cccc2ccc(-c3ccnc(C(F)F)c3)nc12` [Compound 308], the “% Fold Act. (percent maximum fold activation)” value was “A (Fold activation >200%)” and the “EC1.5 (concentration of test compound that results in 150% activation of SIRT1)” value is given as “A (EC1.5<1.0 uM)”.
For `O=C(Nc1ncnc2ccc(-c3cccc(OC(F)(F)F)c3)nc12)c1cncs1` [Compound 309], the “% Fold Act. (percent maximum fold activation)” value is given as “A (Fold activation >200%)” and the “EC1.5 (concentration of test compound that results in 150% activation of SIRT1)” value was “B (EC1.5 1-25 uM)”.
Regarding `O=C(Nc1ncnc2ccc(-c3cccc(C(F)(F)F)c3)nc12)c1ccccn1` [Compound 310], the “% Fold Act. (percent maximum fold activation)” value is listed as “A (Fold activation >200%)” and the “EC1.5 (concentration of test compound that results in 150% activation of SIRT1)” value is given as “A (EC1.5<1.0 uM)”.
Regarding `O=C(Nc1ncnc2ccc(-c3cccc(C(F)(F)F)c3)nc12)c1cccnc1` [Compound 311], the “% Fold Act. (percent maximum fold activation)” value is given as “A (Fold activation >200%)” and the “EC1.5 (concentration of test compound that results in 150% activation of SIRT1)” value is given as “B (EC1.5 1-25 uM)”.
In the case of `O=C(Nc1ncnc2ccc(-c3cccc(C(F)(F)F)c3)nc12)c1ccc(CN2CCCC2)cc1` [Compound 312], the “% Fold Act. (percent maximum fold activation)” value is on record as “A (Fold activation >200%)” and the “EC1.5 (concentration of test compound that results in 150% activation of SIRT1)” value is on record as “B (EC1.5 1-25 uM)”.
As to `Cc1csc(NC(=O)c2cccc3cnc(-c4cccc(N5CCOCC5)c4)nc23)n1` [Compound 313], the “% Fold Act. (percent maximum fold activation)” value is reported as “A (Fold activation >200%)” and the “EC1.5 (concentration of test compound that results in 150% activation of SIRT1)” value is listed as “A (EC1.5<1.0 uM)”.

These data come from US8685970B2, “Quinolines and related analogs as sirtuin modulators” (GlaxoSmithKline, LLC, priority 2008, dated 2014).
